Structures can show the parent of a compound that is named as a salt.
Experiments:
[1] = test system: SU-DHL-2; test: Antiproliferative effect in lymphoma cell line SU-DHL-2 (CellTiter-Glo); format: cell-based, human; details: SU-DHL-2, 4 days
Protocol: Experimental purpose: The experiment aims to evaluate the inhibitory effects of the test compounds on cell proliferation in the lymphoma cell line SU-DHL-2.
The tumor cell lines were cultured in a 37° C., 5% CO2 incubator under the above culture conditions. Regular passage, and cells in logarithmic growth phase were taken for plating.
• (1) Cells were stained with trypan blue and viable cells were counted. • (2) The cell concentration was adjusted to an appropriate concentration.
• (3) 50 μL of cell suspension per well was added to the culture plate as shown in the figure above. • (4) The culture plate was cultured overnight in a 37° C., 5% CO2 incubator with 100% relative humidity.
Compounds were added using the Echo655 instrument. The volume of compound added was 50 nL, with a final DMSO concentration of 0.1%. The culture plate was centrifuged at 1000 rpm for 1 minute, then incubated for 4 days in an incubator at 37° C., 5% CO2, and with 100% relative humidity.
The following steps were performed according to the instructions of Promega CellTiter-Glo luminescent cell viability assay kit (Promega-G7573). • (1) CellTiter-Glo buffer was melted and brought to room temperature. • (2) CellTiter-Glo substrate was brought to room temperature. • (3) CellTiter-Glo working solution was prepared by adding CellTiter-Glo buffer to a vial of CellTiter-Glo substrate to dissolve the substrate; • (4) The mixture was slowly vortexed and shaken to be fully dissolved. • (5) The cell culture plate was taken out and left for 30 minutes to equilibrate to room temperature. • (6) 25 μL of CellTiter-Glo working solution was added per well (equal to half the volume of cell culture medium per well). The cell plate was wrapped in aluminum foil to be protected from light. • (7) The culture plate was shaken on an orbital shaker for 2 minutes to induce cell lysis. • (8) The culture plate was left at room temperature for 10 minutes to stabilize the luminescent signal. • (9) The luminescent signal was detected on a 2104 EnVision plate reader.
The inhibition rate (IR) of the test compound was calculated using the following formula: IR (%)=(1−(RLU compound/RLU blank control)/(RLU vehicle control−RLU blank control)×100%. The inhibition rates of compounds at different concentrations were calculated in Excel, and then GraphPad Prism software was used to plot inhibition curves and calculate relevant parameters, including minimum inhibition rate, maximum inhibition rate, and IC50.

[2] = molecular target: T1, IKZF1 (Homo sapiens, UniProt Q13422+Q96SW2); test: In Cell Western of IKZF1 protein expression level in MM.1S cells; format: cell-based; details: IKZF1, MM.1S cells, 24 hours
T1 construct: host or cells: MM.1S cells
Protocol: Experimental objective: The experiment aims to assess the degradation effect of the test compounds on IKZF1 and 1KZF3 proteins in MM.1S cells by evaluating the impact of the test compounds on the expression levels of IKZF1 and IZKZF3 proteins in MM.1S cells.
• Cell lines: MMN.1 S cell (sourced from ATCC; Cat. No CRL-2974) • Negative control: 0.100 DMSO.
• 1) Log phase MM.1 S cells were plated in a 96-well plate at 1.2×10^5 cells per well and cultured overnight; • 2) The next day, compounds were added with a starting concentration of 300 nM, diluted threefold across three replicate wells for 10 concentration gradients (including DMSO), and the cells were incubated for 24 hours in an incubator; • 3) The cells were centrifuged, and the supernatant was carefully removed. 150 μL of 4% paraformaldehyde fixative was added along the wall of the wells, avoiding contact with the bottom cells, and the cells were incubated at room temperature for 20 minutes; • 4) Lysis buffer was prepared by mixing 0.5 mL of 10% Triton X-100 with 49.5 mL of PBS until homogenous; • 5) 200 μL of lysis buffer was added along the well walls, again avoiding the bottom cells, and incubated on a shaker at room temperature for 5 minutes; • 6) The wells were washed four times; • 7) 150 μL of Licor […] Blocking Buffer was added along the well walls, avoiding the bottom cells, and the cells were incubated on a shaker at room temperature for 1.5 hours; • 8) Ikaros (D6N9Y) Rabbit mAb, Aiolos (D1C1E) Rabbit mAb and GAPDH mouse mAb (proteintech, 60004-1-Ig) were diluted at a 1:100 ratio using antibody dilution buffer; • 9) 50 μL of mixed antibody was added to each well with three replicate wells, and the cells were incubated overnight on a shaker at 4° C.; • 10) PBST (PBS with 0.1% Tween 20) was prepared; • 11) The primary antibodies were removed, and 200 μL of PBST was added along the well walls, avoiding the bottom cells, and the cells were incubated on a shaker at room temperature for 5 minutes; • 12) The wells were washed four times; • 13) Secondary antibody dilution buffer was prepared by adding Tween 20 to Licor […] Blocking Buffer to a final concentration of 0.2%; • 14) Fluorescent secondary antibodies were diluted in the dark at a 1:800 ratio. To 400 μL of secondary antibody dilution solution, 0.5 μL of each IRDye 800CW and IRDye 680CW (corresponding to the primary antibodies) was added. • 15) 50 μL of the diluted fluorescent secondary antibodies was added to each well and the cells were incubated on a shaker at room temperature in the dark for 60 minutes; • 16) The secondary antibodies were removed, and 200 μL of PBST was added along the well walls, avoiding the bottom cells, and the cells were incubated on a shaker at room temperature in the dark for 5 minutes; • 17) The wells were washed four times; immediately after washing, the Odyssey Gel Imaging System was used for detection at dual wavelengths of 700 nm and 800 nm.
Using GraphPad Prism 6 software, inhibition rate data was entered to fit the curve and calculate the DC50 value.

[3] = molecular target: T2, IRAK4 (Homo sapiens, UniProt Q9NWZ3); test: Target protein degradation in K562 IRAK4-HiBiT cells (Nano-Glo HiBiT); format: cell-based; details: 16 to 18 hours
T2 construct: expressed in transfected cells; host or cells: K562 IRAK4-HiBiT cells
T2 sequence (Q9NWZ3 1-460): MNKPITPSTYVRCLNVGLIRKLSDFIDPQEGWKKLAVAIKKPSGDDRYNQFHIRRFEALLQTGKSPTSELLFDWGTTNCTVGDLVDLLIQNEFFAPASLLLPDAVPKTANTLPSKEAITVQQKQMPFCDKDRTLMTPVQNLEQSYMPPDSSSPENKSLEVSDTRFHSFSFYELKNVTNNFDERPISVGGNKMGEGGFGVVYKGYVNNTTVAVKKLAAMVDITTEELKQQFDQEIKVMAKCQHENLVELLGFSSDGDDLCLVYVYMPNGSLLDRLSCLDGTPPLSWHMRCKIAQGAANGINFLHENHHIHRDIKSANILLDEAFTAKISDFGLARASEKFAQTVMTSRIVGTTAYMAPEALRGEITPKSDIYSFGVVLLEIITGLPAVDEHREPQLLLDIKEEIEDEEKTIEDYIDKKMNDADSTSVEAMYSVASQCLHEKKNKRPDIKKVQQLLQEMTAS
Protocol: Experimental objective: The experiment aims to evaluate the degradation effect of the test compounds on the target protein IRAK4 in K562 IRAK4-HiBiT cells.
• Cells: K562 IRAK4-HiBiT cells • Culture medium: RPMI 1640+10% fetal bovine serum+2 mM glutamine+1 mM sodium pyruvate+penicillin/streptomycin. • Positive control: 1000 nM; negative control: 0.1% DMSO.
• (1). The powder of the compound to be tested was dissolved in DMSO to a storage concentration of 10 mM. A total of 9 μL of the 10 mM of the compound to be tested was manually pipetted into the 1st and 13th columns of the LDV plate using a pipettor; • (2). A volume of 6 μL of DMSO was added to columns 2-12 and 14-24 using a Multidrop Combi; • (3). A 3-fold dilution of the test compounds (3 μL+6 μL) was performed using Bravo, for columns 1-11 and 13-23; • (4). According to the plate layout, 25 nL of compound solution (columns 1-24 of the LDV plate) was transferred to the experimental plate using Echo; • (5) 25 nL of the 1 mM positive control solution was transferred to the assay plate as a 100% degradation control (i.e. LC, HPE), and 25 nL of DMSO was transferred to the assay plate as a 0% control (i.e. HC, ZPE).
• (1) The culture medium was discarded, and the cells were washed once with DPBS, digested with trypsin, counted, and prepared into a cell suspension of […]. • (2) Using the MultiDrop Combi at a medium speed, 25 μL/well of the cell suspension was added to the experimental plate containing the test compounds; • (3) The experimental plate containing cells was returned to the incubator and cultured for 16 to 18 hours at 37° C. and 5% CO2.
• (1). Using the MultiDrop Combi at a high speed, 25 μL/well of the assay reagent (NanoGlo lytic solution+substrate+LgBit protein) was added to the assay plate, followed by shaking for 10 minutes; • (2) The plate was centrifuged at 2000 rpm for 1 minute to remove any bubbles; • (3) Readings were obtained by using an Envision, US Luminescence reader.
To calculate the degradation rate (DR) of the test compounds, the following formula is used: IR (%)=(RLU vehicle control−RLU compound)/(RLU vehicle control−RLU positive control)×100%. The solvent control refers to the blank control. The degradation rates of compounds at different concentrations were calculated in Excel, and then XLFit software was used to plot inhibition curves and calculate relevant parameters, including minimum degradation rate, maximum degradation rate, and DC50.

T1 sequence (Q13422 whole entry): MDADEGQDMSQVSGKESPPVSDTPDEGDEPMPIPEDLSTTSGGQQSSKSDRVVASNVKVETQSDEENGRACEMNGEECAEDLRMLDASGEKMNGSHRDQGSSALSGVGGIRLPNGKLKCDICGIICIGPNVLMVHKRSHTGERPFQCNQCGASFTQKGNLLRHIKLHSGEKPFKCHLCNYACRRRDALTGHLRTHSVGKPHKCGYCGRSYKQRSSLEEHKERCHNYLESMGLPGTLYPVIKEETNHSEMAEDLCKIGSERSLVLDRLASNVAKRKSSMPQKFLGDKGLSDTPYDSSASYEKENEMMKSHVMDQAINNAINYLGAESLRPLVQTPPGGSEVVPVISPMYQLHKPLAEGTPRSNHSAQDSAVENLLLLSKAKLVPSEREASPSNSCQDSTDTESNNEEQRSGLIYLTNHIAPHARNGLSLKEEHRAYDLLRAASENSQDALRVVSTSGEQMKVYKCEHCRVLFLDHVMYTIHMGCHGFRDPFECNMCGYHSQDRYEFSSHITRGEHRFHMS
T1 sequence (Q96SW2 whole entry): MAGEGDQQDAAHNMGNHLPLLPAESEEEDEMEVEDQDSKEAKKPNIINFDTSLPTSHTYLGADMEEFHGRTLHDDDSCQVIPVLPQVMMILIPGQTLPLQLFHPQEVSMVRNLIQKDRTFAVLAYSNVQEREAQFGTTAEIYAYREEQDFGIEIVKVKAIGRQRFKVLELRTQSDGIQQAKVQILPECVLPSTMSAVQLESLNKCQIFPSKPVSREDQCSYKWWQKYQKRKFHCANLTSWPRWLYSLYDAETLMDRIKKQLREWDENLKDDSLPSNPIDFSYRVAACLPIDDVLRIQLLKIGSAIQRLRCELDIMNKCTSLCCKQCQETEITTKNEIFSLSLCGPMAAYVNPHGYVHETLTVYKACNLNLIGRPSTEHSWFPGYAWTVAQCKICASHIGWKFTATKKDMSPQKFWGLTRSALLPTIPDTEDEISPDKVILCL
T1 sequence (Q16531 whole entry partner): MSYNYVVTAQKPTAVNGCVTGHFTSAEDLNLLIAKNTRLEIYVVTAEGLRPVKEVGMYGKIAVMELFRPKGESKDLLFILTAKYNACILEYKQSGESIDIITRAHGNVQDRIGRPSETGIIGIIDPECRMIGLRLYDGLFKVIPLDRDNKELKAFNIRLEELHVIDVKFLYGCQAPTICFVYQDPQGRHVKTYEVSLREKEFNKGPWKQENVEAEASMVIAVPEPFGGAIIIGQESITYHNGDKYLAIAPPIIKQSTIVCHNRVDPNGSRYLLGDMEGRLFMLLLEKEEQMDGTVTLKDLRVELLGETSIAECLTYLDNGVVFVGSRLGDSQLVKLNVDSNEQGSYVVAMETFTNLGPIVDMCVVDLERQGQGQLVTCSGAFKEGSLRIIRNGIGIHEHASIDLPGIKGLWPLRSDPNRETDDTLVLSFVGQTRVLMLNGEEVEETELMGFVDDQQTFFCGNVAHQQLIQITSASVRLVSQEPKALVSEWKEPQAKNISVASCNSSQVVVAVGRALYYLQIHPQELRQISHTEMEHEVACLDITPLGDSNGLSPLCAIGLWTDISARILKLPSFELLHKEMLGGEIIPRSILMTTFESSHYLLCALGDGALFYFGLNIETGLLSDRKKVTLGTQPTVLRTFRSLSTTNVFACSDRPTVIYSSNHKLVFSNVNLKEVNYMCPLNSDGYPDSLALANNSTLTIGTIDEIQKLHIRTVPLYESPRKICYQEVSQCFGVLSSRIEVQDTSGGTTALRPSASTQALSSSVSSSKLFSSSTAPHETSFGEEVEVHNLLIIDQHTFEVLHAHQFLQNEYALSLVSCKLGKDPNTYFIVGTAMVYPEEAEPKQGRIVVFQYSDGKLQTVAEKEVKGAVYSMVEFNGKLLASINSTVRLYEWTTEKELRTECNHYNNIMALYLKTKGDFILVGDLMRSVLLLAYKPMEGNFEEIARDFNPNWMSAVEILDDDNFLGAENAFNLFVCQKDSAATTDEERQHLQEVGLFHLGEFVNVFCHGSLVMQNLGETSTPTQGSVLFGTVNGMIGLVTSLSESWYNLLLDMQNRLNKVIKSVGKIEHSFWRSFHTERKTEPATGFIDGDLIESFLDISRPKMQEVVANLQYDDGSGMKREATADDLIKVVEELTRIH

Row | IC50 ([1]; Homo sapiens, 96 h) | DC50 [2] | Dmax ([2]; MM1.S, read-out: Maximum degradation rate Dmax) | DC50 [3] | Dmax ([3]; read-out: Maximum degradation rate) | SMILES | Maximum inhibition rate [1]
1 | 64.5 nM | – | – | – | – | CN(CCCOCCCc1ccc2occ(C3CCC(=O)NC3=O)c2c1)C[C@H]1CC[C@H](n2cc(NC(=O)c3coc(-c4ccnc(NCC5CC5)c4)n3)c(C(F)F)n2)CC1 (stereo partly drawn) [Hydrochloride of WX004] | 99.05%
2 | – | 31.3 nM | 57.2% | 7.16 nM | 114% | CC(C)(O)c1cc2nc([C@H]3CC[C@H](CN4CCC(C(F)(F)C(=O)Nc5cccc6c(C7CCC(=O)NC7=O)noc56)CC4)CC3)sc2cc1NC(=O)c1cccc(C(F)(F)F)n1 (stereo partly drawn) [Formate of WX023] | –

Source: patent publication US20240400547A1, “2,6-PIPERIDINEDIONE COMPOUND AND APPLICATION THEREOF” (MEDSHINE DISCOVERY INC., priority 2021, published 2024)
